Test results reported in patent EP0203736A1, “Antiviral compounds” (THE WELLCOME FOUNDATION LIMITED, priority 1985, dated 1986).

Test system: herpes simplex
Assay: In vivo potency against herpes simplex infection in intra-cerebrally infected mice (survival times, MRST)
Set-up: species or system CD 1 mice
Conditions: for MRST: mean reciprocal survival time; for MRST / survivors / Survival Times: 50 mg/kg twice daily for 4.5 days; for MRST / Survival Times: recorded over 14 days; for survivors / Survival Times: 10 animals; for survivors: 14 days, 1 mouse died within 24 hours of infection; for Survival Times: figures = number of animals that died (on the day in parentheses)
Experimental: The compounds of Examples 1 and 2 were tested in vivo to determine their potency in vivo against herpes simplex infections. The compounds were tested in comparison with the 6-deoxy analogue of the compound of Example 1, namely 9-(3,4-dihydroxybutyI) guanine (DHBG). The following is description of the testing.
The compounds were tested in CD 1 mice infected with herpes simplex ICI cell culture stock having a titre of 1 x 10^5 plaque forming units (pfu)/ml and administered to the mice in a dose of 0.025ml by the intra-cerebral route.
The test compounds were prepared as aqueous suspensions or solutions, each compound being administered at a dose of 50 mg/kg in a volume of 0.1 ml, by either the oral or sub-cutaneous (s.c.) route, to a treatment group of animals. Each group contained 10 animals for each compound and for each route of administration.
Treatment of the animals commenced 2-3 hours after infection and continued twice daily for 4.5 days.
A group of 13 animals which were infected but untreated served as controls.
Survival times for the test animals were recorded over 14 days and expressed as mean reciprocol survival times (MRST).
The results shown in the following table were obtained in which the figures in the column headed "Survival Times" indicate the number of animals that died on the day indicated in parentheses.

## Nc1ncc2ncn(COCC(O)CO)c2n1 (stereo not drawn) [Example 2]
oral
  MRST: 0.059
  survivors: 5
  Survival Times: 1(6), 1(7), 1(8), 1(10.5)
s.c.
  MRST: 0.054
  survivors: 5
  Survival Times: 3(8), 1(9)
Summary statement, particularly in comparison with DHBG
  antiviral effect in vivo against HSV: potent antiviral effect

## Nc1ncc2ncn(CCC(O)CO)c2n1 (stereo not drawn) [Example 1, 2-Amino-9-(3,4-dihydroxybutyl)-9H-purine]
oral
  MRST: 0.154
  Survival Times: 1(5), 4(6), 3(7), 1(7.5), 1(9)
s.c.
  MRST: 0.160
  Survival Times: 7(6), 3(7)

## Nc1nc2c(ncn2CCC(O)CO)c(=O)[nH]1 (stereo not drawn) [DHBG, 9-(3,4-dihydroxybutyI) guanine, reference compound]
oral
  MRST: 0.18
  Survival Times: 1(4.5), 3(5), 5(6), 1(7)
s.c.
  MRST: 0.155
  Survival Times: 1(5), 3(6), 5(7), 1(7.5)
